Assay results taken from patent US11439709B2, “Phospholipid ether analogs as cancer-targeting drug vehicles” (Cellectar Biosciences, Inc., priority 2014, dated 2022).

Tests used:
[1] = system: human RL-251 tumor xenograft; experiment: Prolonged retention of 131I-CLR1404 by RL-251 tumor xenograft; format: in vivo, SCID mouse; details: See FIG. 3
Description: FIG. 3. Prolonged retention of ^131ICLR1404 by human RL-251 tumor xenograft in SCIO mouse.

[2] = system: non-small cell lung carcinoma (NSCLC) tumors; experiment: Clinical evaluation of 131I-CLR1404 in NSCLC patients (gamma imaging); format: in vivo, human; details: two patients with advanced NSCLC; injection of <1 mCi 131I-CLR1404
Experimental: To date, two patients with advanced NSCLC were imaged after an injection of <1 mCi of ^131I-CLR1404. Blood and urine samples were collected at predetermined times, and gamma imaging performed at several time points following administration.
Materials and Methods: Following intravenous injection of iodine-131 labeled CLR1404 (1 mCi/20 μg), patients with advanced NSCLC where scanned at 3, 6, 24, 48, 96 h and at 7 and 11 days on a GE Maxxus dual Head SPECT scanner. Blood and urine samples were collected for pharmacokinetic analysis as well as clinical hematologic, renal, and hepatic bioanalysis.

[3] = system: xenograft, orthotopic and transgenic cancer and cancer stem cell derived animal models; experiment: Tumor selectivity of radioiodinated CLR1404 across animal tumor models (overall count); format: in vivo; details: transgenic and spontaneous rodent models
Experimental: All described animal studies were performed according to animal protocols approved by the Institutional Animal Care and Use Committee. Female athymic nude mice (Hsd:Athymic Nude-Foxnlnu or Crl:NU-Foxn1nu, Charles River Laboratories) about 4 to 5 weeks of age, 16 to 18 g (n=6), were used for human tumor xenograft studies. Mice were anesthetized with isoflurane and injected subcutaneously with viable tumor cells in 100 μl of Dulbecco's PBS (or, for glioma cells, […] of PBS) into the right flank. Inoculum sizes were 1×10^6 (for renal, ovarian, glioma, pancreatic, prostate, and NSCLC models), 2×10^6 (for colorectal and uterine models), or 3×10^6 (breast).
Radioiodinated ^124l-LR1404 was tested. in subcutaneous and orthotopic xenografts of 60 different spontaneous, transgenic, human, and rodent malignant cell lines and tumor types. […] Representative examples are of both human (FIG. 5A-5l) and rodent (FIG. 5J-M) tumors.

PC-3 cells = experiment: Uptake of 125I-CLR1404 by PC-3 cells after lipid raft disruption with filipin III; format: cell-based; details: PC-3 cells pretreated with 2 μg/ml filipin III 15 min, then 125I-CLR1404 for 1 h; compared to untreated control cells
Experimental: PC-3 cells were pretreated with either 2 μg/ml filipin III or vehicle for 15 min, then washed and incubated with 2 μCi of ^125I-CLR1404 for 1 h. The media was removed and the cells were washed with phosphate buffered saline containing 0.1% bovine serum albumin, trypsinized, then split into two samples for determination of cell number by DNA content (A280 compared to a cell line specific standard curve) and counts per minute using a Gamma Counter (Perkin Elmer).

C6 glioma = experiment: Rat C6 glioma model, NM404 imaging and tissue distribution; format: in vivo; details: for Tumor to brain ratio: C6 glioma-bearing rats
Experimental: Materials and Methods: All animals were housed and handled in accordance with the University of Wisconsin Research Animal Resources Center guidelines. Rat C6 glioma cells were propagated in DMEM medium (Life Technologies, Gaithersburg, Md.) supplemented with 10% heat-inactivated FBS (Bio Whittaker, Walkersville, Md.), 100 U/ml penicillin G, […] streptomycin, and 0.01 M HEPES (Life Technologies, Gaithersburg, Md.). Intracranial tumor implantation was performed as described previously. Cohen J D, et al., Intracranial C6 glioma model in adult Wistar-Furth rats. J Neuro Oncol 1990 8(1):95-6. Briefly, 1×10^6 C6 cells were resuspended in […] 1.2% methylcellulose and injected into the frontal lobes of anesthetized female Wistar rats (Harlan, Indianapolis, Ind.). Sham-operated animals received intracranial injections of an equal volume of methylcellulose without tumor cells.
Imaging Studies: Ten days after implantation, the presence of intracranial tumors was confirmed with MM. Briefly, anesthetized rats (6) received 2 ml of Gadodiamide (Gd, Omniscan 287 mg/ml, Nycomed, Princeton, N.J.) intraperitoneally and imaged 10 min later using a 1.5 Tesla clinical MR system (GE Signa LX) and a GE phased array extremity coil. The Tl-weighted (TR=500 ms, TE=I6.5 ms) multislice sequences covering the entire brain of each rat were inspected to select tumor-bearing rats with varying tumor sizes, and sham-operated rats for NM404 injections.
NM404 [18-(4-iodophenyl)-octadecylphosphocholine] (100 mg) was radioiodinated with ^125l via isotope exchange with Na^125I in a melt of pivalic acid. Weichert, et al. Int J Appl Rad Isotopes 1986; 37:907-913. NM404 has the same chemical structure as CLR1404 except that it is radioiodinated with ^125l instead of ^124l or ^131l. Following HPLC purification NM404 was dissolved in an aqueous 2% Polysorbate 20 solution prior to tail vein injection (5: −20 μCi/200 g rat) into four tumor-bearing and three sham-operated rats. At 1 (n=1), 2 (n=1), and 4 (n=2) days after NM404 injection, animals were euthanized (CO2) and brains were excised and imaged on a modified Bioscan AR2000 radio-TLC scanner (1 mm increments at 2 min acquisition/lane and 1 mm high-resolution collimator). In addition, normal brain, blood, kidney, liver, spleen, thyroid, and tumor tissues were weighed, and radioactivity counted in a gamma counter. The tissue distribution of radioactivity was then correlated to brain histology.

[4] = system: human glioblastoma stemlike cells and serum-cultured human glioblastoma cells; details: Weichert J. P., et al. (2014), FIG. 2; cited from earlier work
[5] = system: cancer cell lines (renal, ovarian, pancreatic, melanoma, and prostate); experiment: Uptake of CLR1501 by cancer cell lines versus normal fibroblasts (confocal microscopy); format: cell-based; details: 24 hours; five cancer cell lines (renal, ovarian, pancreatic, melanoma, prostate) vs normal human skin fibroblasts; 5 or 7.5 μM
Description: Human cancer cell lines were purchased from the American Type Culture Collection (ATCC). They included the following: Caki-2 (renal; clear cell carcinoma), HCT-116 (colorectal carcinoma); MES-SA/Dx5 (uterine sarcoma) [all maintained in McCoy's 5a medium supplemented with 10% fetal bovine serum (FBS)], Ovcar-3 (ovarian adenocarcinoma) [maintained in RPMI medium supplemented with 20% FBS], U87-MG (glioma) [maintained in minimum essential medium supplemented with 10% FBS], Mia Paca-2 (pancreatic carcinoma) (maintained in Dulbecco's modified Eagle's medium supplemented with 10% FBS), PC-3 (prostate carcinoma) (maintained in F-12K medium supplemented with 10% FBS), MDA-MB-231 (triple-negative mammary gland adenocarcinoma) (maintained in Leibovitz's medium supplemented with 10% FBS), and A549 (non-small cell lung carcinoma) (maintained in F-12 medium supplemented with 10% FBS). Normal human skin fibroblasts were purchased from ATCC and grown in Fibroblast Basal Medium PCS-201-030 supplemented with serum-free kit (Fibroblast Growth. Kit-Serum-Free PCS-201-040). […]
All cells were maintained at 37° C. in appropriate medium supplemented with 10% FBS and 5% CO2. […] The emission signal of CLRI 50 I was detected using Alexa Fluor 488 filters (ex/em 480/520 nm).

SMILES: C[N+](C)(C)CCOP(=O)([O-])OCCCCCCCCCCCCCCCCCCc1ccc(I)cc1 [CLR1404, 18-(4-iodophenyl)-octadecylphosphocholine]
- time remaining in cancer cells [1]: up to 20 days
- tumor uptake and retention in the primary lung tumor [2]: significant tumor uptake and retention
- models showing tumor selectivity / selective and prolonged tumor retention [3]: 55/60

SMILES: C[N+](C)(C)CCOP(=O)([O-])OCCCCCCCCCCCCCCCCCCc1ccc(I)cc1 [NM404, 18-(4-iodophenyl)-octadecylphosphocholine]
- less uptake after disruption of lipid rafts (PC-3 cells): ~40%
- Tumor to brain ratio (C6 glioma; 48 h after tail vein injection): 12.2
- Tumor to brain ratio (C6 glioma; 96 h after tail vein injection): 6.7
- uptake and retention in gliomas (imaging) (C6 glioma; gliomas ranging from 3-5 mm in diameter): striking uptake and prolonged retention in all gliomas
- Radioactivity in normal brain tissue (C6 glioma; sham operated control animals): minimal

SMILES: C[N+](C)(C)CCOP(=O)([O-])OCCCCCCCCCCCCCCCCCCc1ccc(C2=C3C=CC=[N+]3[B-](F)(F)n3cccc32)cc1 [CLR1501]
- uptake compared to normal human astrocytes and fetal human neural stem cells [4]: enhanced uptake
- preferential uptake in cancer cell lines compared to normal fibroblasts [5]: five to nine
